PubChem BioAssay (NCI)
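Each compound was tested at five concentrations against cells in 96-well plates for 48 hours. TGI marks complete inhibition of growth.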

What was measured:
Experiment in all cases: growth of human tumour cells (NCI), 48 h
A549 NSCLC = tested on: A549 NSCLC
ACHN renal = tested on: ACHN renal
DU-145 prostate = tested on: DU-145 prostate
HS 578T breast = tested on: HS 578T breast
K-562 leukemia = tested on: K-562 leukemia
LOX IMVI melanoma = tested on: LOX IMVI melanoma
MDA-MB-435 = tested on: MDA-MB-435
MOLT-4 leukemia = tested on: MOLT-4 leukemia
NCI-H23 lung = tested on: NCI-H23 lung
NCI-H522 lung = tested on: NCI-H522 lung
NCI/ADR-RES ovarian = tested on: NCI/ADR-RES ovarian
OVCAR-3 ovarian = tested on: OVCAR-3 ovarian
OVCAR-4 ovarian = tested on: OVCAR-4 ovarian
OVCAR-8 ovarian = tested on: OVCAR-8 ovarian
RPMI-8226 leukemia = tested on: RPMI-8226 leukemia
SNB-19 CNS = tested on: SNB-19 CNS
UO-31 renal = tested on: UO-31 renal

| Compound | TGI (A549 NSCLC) [µM] | TGI (ACHN renal) [µM] | TGI (DU-145 prostate) [µM] | TGI (HS 578T breast) [µM] | TGI (K-562 leukemia) [µM] | TGI (LOX IMVI melanoma) [µM] | TGI (MDA-MB-435) [µM] | TGI (MOLT-4 leukemia) [µM] | TGI (NCI-H23 lung) [µM] | TGI (NCI-H522 lung) [µM] | TGI (NCI/ADR-RES ovarian) [µM] | TGI (OVCAR-3 ovarian) [µM] | TGI (OVCAR-4 ovarian) [µM] | TGI (OVCAR-8 ovarian) [µM] | TGI (RPMI-8226 leukemia) [µM] | TGI (SNB-19 CNS) [µM] | TGI (UO-31 renal) [µM] |
| --- | --- | --- | --- | --- | --- | --- | --- | --- | --- | --- | --- | --- | --- | --- | --- | --- | --- |
| CC1Cc2cc(O)ccc2C2[C@@H]1C1CC[C@H](O)[C@@]1(C)C[C@@H]2O[N+](=O)[O-] (stereo not given in full) | 79.7 | > 100 | 76.3 | 22.3 | 49.4 | 32.7 | 16.9 | > 100 | 67.8 | 61.3 | 38.9 | > 84.1 | > 100 | 74 | 50.2 | 98.7 | 63.7 |
| CCN(CC)C1=Nc2ccccc2-n2c(C)cnc2C1 | > 100 | > 100 | > 100 | > 100 | > 100 | > 100 | > 100 | > 100 | > 100 | > 100 | > 100 | > 100 | > 100 | > 100 | > 100 | > 100 | > 100 |
| O=C1OC(c2ccccc2)N/C1=C\c1ccc2c(c1)OCO2 (stereo not given) | > 100 | > 100 | > 100 | > 100 | > 100 | > 100 | > 100 | > 100 | > 100 | > 100 | > 100 | > 100 | > 88 | > 100 | 59.9 | > 100 | > 100 |
| COc1cc(OC)nc(Nc2c(C#N)c3nc4ccccc4n3c3ccccc23)n1 | > 100 | 50.1 | > 100 | > 100 | > 100 | > 100 | > 100 | > 100 | > 100 | 64 | > 100 | > 100 | 78.7 | > 100 | > 100 | 86.2 | > 100 |
| Cc1c2cccc-2c(OCCO)cc2c1[nH]c1ccccc12 | 11.6 | 2.72 | > 50.1 | > 49.6 | > 24.3 | 4.97 | 15.8 | 20.1 | 12.3 | 5.38 | > 23.4 | 3.75 | 13.5 | 15.7 | 8.52 | 18.6 | 3.09 |
| CCCCCCCCCCCCP(=O)(O)OCC(N)C(=O)O (stereo not given) | > 100 | > 100 | > 100 | 58.2 | > 100 | > 100 | 34.6 | 61.7 | > 100 | > 100 | > 100 | 36.5 | > 100 | > 100 | 91.9 | 44.7 | 26 |
| CC(=O)OCc1cn(S(=O)(=O)c2ccc(C)cc2)cn1 | > 100 | > 100 | > 100 | > 100 | > 100 | > 100 | > 100 | > 100 | > 100 | > 100 | > 100 | 85.9 | > 100 | > 100 | > 100 | > 100 | > 100 |
| O=C1O[C@H]2[C@@H]3OC(=O)c4cc(O)c(O)c(O)c4-c4c(cc(O)c(O)c4O)C(=O)OC[C@H]2O[C@@H](OC(=O)c2cc(O)c(O)c(O)c2)[C@@H]3OC(=O)c2cc(O)c(O)c3c2[C@@H]2C1=CC(=O)C(O)(O)C2(O)O3 (stereo not given in full) | > 100 | > 100 | > 100 | > 100 | 94.5 | 26.1 | 32.2 | 92 | > 100 | 82.9 | > 100 | > 100 | 39.4 | 40.5 | > 100 | > 100 | > 100 |
| Cc1ccc(C)c(NC(=O)C(Cc2c[nH]c3ccccc23)NC(=O)OCc2ccccc2)c1 (stereo not given) | 26.1 | > 100 | 33.7 | > 100 | 28.9 | > 100 | > 100 | 19.6 | 68.4 | 69.1 | 33 | > 100 | 25 | > 100 | 44 | 27.6 | 34.9 |
| Cc1cc(-c2nc3cc(F)c(F)cc3s2)ccc1N | > 100 | > 100 | > 100 | > 100 | > 100 | > 100 | > 100 | > 100 | > 100 | > 100 | > 100 | > 100 | > 100 | > 100 | > 100 | > 100 | > 100 |
| COC(=O)C1CCC(=O)N1C(c1ccc2c(c1)OCO2)c1ccc2c(c1)OCO2 (stereo not given) | > 100 | > 100 | > 100 | > 100 | > 100 | > 100 | > 100 | > 100 | > 100 | > 100 | > 100 | > 100 | > 100 | > 100 | > 100 | > 100 | > 100 |
| COC(=O)[C@@H]1C[C@]2(CC=C(C)C)c3ccccc3N(S(=O)(=O)c3ccccc3)[C@@H]2N1C(=O)OC | > 100 | > 100 | > 100 | 66.9 | > 100 | > 100 | 45 | > 100 | > 100 | 67.3 | 83.1 | > 100 | > 100 | 86.5 | 42.6 | > 100 | > 100 |
| CCOP(C)(=O)C(Nc1ccc(F)cc1)c1ccc(F)cc1 (stereo not given) | > 100 | > 100 | > 100 | > 100 | > 100 | > 100 | > 100 | > 100 | > 100 | > 100 | > 100 | > 100 | > 100 | > 100 | > 100 | > 100 | > 100 |
| O=C(/C(=C/c1cccs1)c1ccccc1)c1ccccc1 | > 100 | > 100 | > 100 | > 100 | > 100 | > 100 | > 100 | > 100 | > 100 | > 100 | > 100 | > 100 | > 100 | > 100 | > 100 | > 100 | > 100 |
| Cc1nc(C)c(N2CCN(C#N)CC2)c(=O)[nH]1 | > 100 | > 100 | > 100 | > 100 | > 100 | > 100 | > 100 | > 100 | > 100 | > 100 | > 100 | > 100 | > 100 | > 100 | > 100 | > 100 | > 100 |
| COc1c(O)cc(C(=O)O[C@@H]2Cc3c(O)cc(O)cc3O[C@@H]2c2cc(O)c(O)c(O)c2)cc1O | 51.2 | > 100 | 46.7 | > 100 | 46.8 | 40.2 | 33.3 | 56.8 | 98.5 | 54.6 | > 100 | > 100 | 46.4 | 54.1 | 57.7 | 43 | 50.5 |
| CCOP(=O)(OCC)/C(C#N)=C/c1c(C)[nH]c2ccccc12 | > 100 | > 100 | > 100 | > 100 | > 100 | > 100 | > 100 | > 100 | > 100 | > 100 | > 100 | > 100 | > 100 | > 100 | > 100 | > 100 | 47.8 |
| COC(Cc1ccccc1)NC(C)=O (stereo not given) | > 100 | > 100 | > 100 | > 100 | > 100 | > 100 | > 100 | > 100 | > 100 | > 100 | > 100 | > 100 | > 100 | > 100 | > 100 | > 100 | > 100 |
| O=C(N/C(=C\c1ccccc1)C1Nc2ccccc2C(=O)O1)c1ccccc1 (stereo not given) | > 100 | > 100 | > 100 | 99.7 | 51.9 | 36.1 | > 100 | 45.1 | > 100 | 33.5 | 70.9 | 96.7 | > 100 | 51.1 | 63.2 | > 100 | 44.2 |
| CC(=O)Nc1ccc(-c2nc3ccccc3s2)cc1O | > 100 | > 100 | > 100 | > 100 | > 100 | > 100 | > 100 | 85.6 | > 100 | 9.85 | 64.4 | > 100 | > 100 | > 100 | > 100 | > 100 | > 100 |
